pIC50: −log10 of the molar value. Like-named read-outs stand apart in the source and are kept apart here. Where no end group is shown, it is not given here.
Columns and labels:
[1] = target: T1, HLA-A3001 (Homo sapiens, UniProt P04439, D140H/D185E/E176W/F33S/G80R/H175R/K168Q/R138E/R41S); assay: cell-based; assay type: binding; conditions: for 5-μM inhibition (%) / 15-μM inhibition (%) / inhibition at 5 µM / inhibition at 15 µM: A3001, 24 h, 4°C, flow cytometry; for 5-μM inhibition (%) / inhibition at 5 µM: peptide 5 μM vs FITC-labeled reference peptide 300 nM; for 15-μM inhibition (%) / inhibition at 15 µM: peptide 15 μM vs FITC-labeled reference peptide 300 nM; for inhibition at 5 µM: read-out: 5-μM inhibition (%); for inhibition at 15 µM: read-out: 15-μM inhibition (%)
T1 construct: expressed in transfected cells; host or cells: HMy2.CIR

[2] = target: HLA-A1102 (Homo sapiens, UniProt P04439, A114D/D185E/E176A/E43K/F33Y/L180Q/S129P/T187R); assay: cell-based; assay type: binding; conditions: 24 h; for inhibition at 5 µM: read-out: 5-μM inhibition (%); for inhibition at 15 µM: read-out: 15-μM inhibition (%)
[3] = target: T2, HLA-A0207 (Homo sapiens, UniProt P04439, D140Y/D185E/D98H/E176V/E277Q/G131W/G231S/I119V/I121R/I166T/I218V/L300P/L318F/N151K/N90K/P208A/P217A/Q86G/Q94H/R138H/R169H/T345S/Y123C); assay: Peptide competitive binding assay, HMy2.CIR cells expressing A0207; conditions: 24 h, 4°C, flow cytometry; for 5-μM inhibition (%): peptide 5 μM vs FITC-labeled reference peptide 300 nM; for 15-μM inhibition (%): peptide 15 μM vs FITC-labeled reference peptide 300 nM
T2 construct: expressed in transfected cells; host or cells: HMy2.CIR

[4] = target: T3, HLA-A1101 (Homo sapiens, UniProt P04439, A114D/D185E/E176A/F33Y/L180Q/S129P/T187R); assay: cell-based; assay type: binding; conditions: for inhibition at 5 µM / inhibition at 15 µM: 24 h; for inhibition at 5 µM: read-out: 5-μM inhibition (%); for inhibition at 15 µM: read-out: 15-μM inhibition (%)
T3 construct: expressed in transfected cells; host or cells: HMy2.CIR

[5] = target: T4, HLA-A3101 (Homo sapiens, UniProt P04439, A270S/D185E/E176V/E277Q/F33T/G231S/G80R/H175R/I121M/I218V/I322F/K168Q/L300P/L318F/M331R/P217A/Q94H/R138Q/T323A/T345S/T97I/V358M); assay: Peptide competitive binding assay, HMy2.CIR cells expressing A3101; conditions: for inhibition at 5 µM / 5-μM inhibition (%): peptide 5 μM vs FITC-labeled reference peptide 300 nM; for inhibition at 5 µM / inhibition at 15 µM / 5-μM inhibition (%) / 15-μM inhibition (%): 24 h, 4°C, flow cytometry; for inhibition at 15 µM / 15-μM inhibition (%): peptide 15 μM vs FITC-labeled reference peptide 300 nM; for pIC50: read-out: Affinity
T4 construct: expressed in transfected cells; host or cells: HMy2.CIR

[6] = target: HLA-A3303 (Homo sapiens, UniProt P04439, A270S/D185E/E176V/E277Q/E87N/F33T/G231S/H175R/I121M/I218V/I322F/K168Q/L300P/L318F/M331R/P217A/Q86R/Q94H/R138Q/T323A/T345S/T97I/V358M); assay: Peptide competitive binding assay, HMy2.CIR cells expressing A3303; conditions: for inhibition at 5 µM: peptide 5 μM vs FITC-labeled reference peptide 300 nM; for inhibition at 5 µM / inhibition at 15 µM: 24 h, 4°C, flow cytometry; for inhibition at 15 µM: peptide 15 μM vs FITC-labeled reference peptide 300 nM; for pIC50: read-out: Affinity
[7] = target: T5, HLA-A0206 (Homo sapiens, UniProt P04439, D140Y/D185E/D98H/E176V/E277Q/F33Y/G131W/G231S/I119V/I121R/I166T/I218V/L300P/L318F/N151K/N90K/P208A/P217A/Q86G/Q94H/R138H/R169H/T345S); assay: Peptide competitive binding assay, HMy2.CIR cells expressing A0206
T5 construct: expressed in transfected cells; host or cells: HMy2.CIR

[8] = A1102, peptide 5 μM vs FITC-labeled reference peptide 300 nM, 4°C, flow cytometry
[9] = A1102, peptide 15 μM vs FITC-labeled reference peptide 300 nM, 4°C, flow cytometry
[10] = A1101, peptide 5 μM vs FITC-labeled reference peptide 300 nM, 4°C, flow cytometry
[11] = A1101, peptide 15 μM vs FITC-labeled reference peptide 300 nM, 4°C, flow cytometry
[12] = peptide 5 μM vs FITC-labeled reference peptide 300 nM, 24 h, 4°C, flow cytometry
[13] = peptide 15 μM vs FITC-labeled reference peptide 300 nM, 24 h, 4°C, flow cytometry
[14] = A3303, class from inhibition at 5 and 15 μM of FITC-labeled reference peptide binding

For RLRGFILVA [Peptide P92], the “5-μM inhibition (%)” value [1] was 18.53% and the “15-μM inhibition (%)” value [1] was 39.48%.
For RANSPTSRK [Peptide P88], the “5-μM inhibition (%)” value [2, 8] was 0.00% and the “15-μM inhibition (%)” value [2, 9] was 0.35%.
In the case of LVDTIAIAV [Peptide P77], the “5-μM inhibition (%)” value [3] was 9.36% and the “15-μM inhibition (%)” value [3] was 23.40%.
FVNTPPLVK [Peptide P44] was tested, and the pIC50 [4] was greater than 5.30, the inhibition at 5 µM [4, 10] was 84.5% and the inhibition at 15 µM [4, 11] was 92.7%. The inhibition at 5 µM [2, 8] was 6.01% and the inhibition at 15 µM [2, 9] was 26.1%.
Work on MVHQPISPR [Peptide P103] yielded an inhibition at 5 µM [2, 8] of 3.81%, an inhibition at 15 µM [2, 9] of 13.4% and an inhibition at 5 µM ([5]; A3101) of 65.4%. For the same molecule, the inhibition at 15 µM ([5]; A3101) was 79.2%, the pIC50 [5] was greater than 5.30 and the inhibition at 5 µM ([6]; A3303) was 70.2%. The inhibition at 15 µM ([6]; A3303) was 99.5% and the pIC50 [6] was greater than 5.30.
QIINMWQEV [Peptide P73] was tested, and the “5-μM inhibition (%)” value [7, 12] was 25.71% and the “15-μM inhibition (%)” value [7, 13] was 27.84%.
YVDRFFKTL [Peptide P76] was tested, and the “5-μM inhibition (%)” value [3] was 11.90% and the “15-μM inhibition (%)” value [3] was 30.60%.
With RIKCFNCGR [Peptide P96] the “5-μM inhibition (%)” value ([5]; A3101) was 0.00% and the “15-μM inhibition (%)” value ([5]; A3101) was 0.00%.
In the case of RAKRRVVER [Peptide P98], the pIC50 ([5]; A3101, class from inhibition at 5 and 15 μM of FITC-labeled reference peptide binding) was 4.82 to 5.30, the inhibition at 5 µM ([5]; A3101) was 47.9% and the inhibition at 15 µM ([5]; A3101) was 82%.
Molecule WIILGLNKI [Peptide P72] has a pIC50 ([7]; class from inhibition at 5 and 15 μM of FITC-labeled reference peptide binding, read-out: Affinity) of 4.82 to 5.30, an inhibition at 5 µM [7, 12] of 40.9% and an inhibition at 15 µM [7, 13] of 67.3%.
For AAGTGSSSK [Peptide P86], the “5-μM inhibition (%)” value [2, 8] was 1.04% and the “15-μM inhibition (%)” value [2, 9] was 3.12%.
In the case of QLTEVVQKV [Peptide P80], the “5-μM inhibition (%)” value [3] was 20.67% and the “15-μM inhibition (%)” value [3] was 25.60%.
In the case of CC[C@H](C)[C@H](NC(=O)[C@H](Cc1ccccc1)NC(=O)[C@@H](NC(=O)[C@H](C)N)C(C)C)C(=O)N[C@@H](Cc1c[nH]cn1)C(=O)N[C@@H](CC(N)=O)C(=O)N[C@@H](Cc1ccccc1)C(=O)N[C@@H](CCCCN)C(=O)N[C@@H](CCCNC(=N)N)C(=O)O [Peptide P41], the pIC50 [4] was greater than 5.30, the inhibition at 5 µM [4] was 83.8% and the inhibition at 15 µM [4] was 86.8%. The inhibition at 5 µM [2] was 1.73%, the inhibition at 15 µM [2] was 21.5% and the inhibition at 5 µM ([5]; A3101) was 63.4%. For the same molecule, the inhibition at 15 µM ([5]; A3101) was 96%, the pIC50 [5] was greater than 5.30 and the inhibition at 5 µM ([6]; A3303) was 71%. For the same molecule, the inhibition at 15 µM ([6]; A3303) was 89.8% and the pIC50 [6] was greater than 5.30.
Molecule RVRQGYSPL [Peptide P91] has a pIC50 [1] greater than 5.30, an inhibition at 5 µM [1] of 92.4% and an inhibition at 15 µM [1] of 100%.
In the case of RLRPGGRKK [Peptide P89], the “5-μM inhibition (%)” value [1] was 27.40% and the “15-μM inhibition (%)” value [1] was 39.48%.
ATLWCVHQR [Peptide P34] gave a pIC50 ([4]; A1101, class from inhibition at 5 and 15 μM of FITC-labeled reference peptide binding, read-out: Affinity) of 4.82 to 5.30, an inhibition at 5 µM [4, 10] of 44% and an inhibition at 15 µM [4, 11] of 77.8%. For the same molecule, the inhibition at 5 µM [2, 8] was 3.12%, the inhibition at 15 µM [2, 9] was 13.8% and the pIC50 [6, 14] was greater than 5.30. The inhibition at 5 µM ([6]; A3303) was 63.8% and the inhibition at 15 µM ([6]; A3303) was 77.2%.
Molecule MAHQPLSPR [Peptide P111] has an inhibition at 5 µM [2, 8] of 4.16%, an inhibition at 15 µM [2, 9] of 20.6% and a pIC50 [6, 14] greater than 5.30. For the same molecule, the inhibition at 5 µM ([6]; A3303) was 78.2% and the inhibition at 15 µM ([6]; A3303) was 89.2%.
In the case of ASRELERFA [Peptide P90], the pIC50 [1] was 4.82 to 5.30, the inhibition at 5 µM [1] was 17.7% and the inhibition at 15 µM [1] was 58%.
NLKTGKYAR [Peptide P101] was tested, and the “5-μM inhibition (%)” value ([5]; A3101) was 32.90% and the “15-μM inhibition (%)” value ([5]; A3101) was 41.10%.

Source: article PMC11850406, “Large-scale screening of HIV-1 T-cell epitopes restricted by 12 prevalent HLA-A allotypes in Northeast Asia and universal detection of HIV-1-specific CD8^+ T cells” (Frontiers in Microbiology, 2025)
